The test system of data set [1] is sperms of male C57/B6 mice (fertilization function of a mammal sperm). Put plainly: Semination by in vitro fertilization with sperms precultured in test culture medium; two-cell egg formation. Format: cell-based.

Structures are written as SMILES.

In the case of `COc1cccc2c(C(CC(=O)c3ccc(F)cc3F)C(=O)O)c[nH]c12` (centres unmarked) [(5-2), 4-(2,4-difluorophenyl)-2-(7-methoxy-1H-indol-3-yl)-4-oxo-butanoic Acid], the melting point lay within 181 to 183 °C.
On the same count and under the same terms, then `Cc1ccc2[nH]cc(C(CC(=O)c3ccc(F)cc3F)C(=O)O)c2c1` (centres unmarked) [(3-3), 4-(2,4-difluorophenyl)-2-(5-methyl-1H-indol-3-yl)-4-oxo-butanoic Acid], with 200 to 202 °C; and `CCCCCOc1ccc2cccc(CC(=O)O)c2c1` [Compound #34, α-(7-Pentoxy-1-naphthalenyl)-acetic Acid], with 104 to 106 °C.
`O=C(CC(C(=O)O)c1c[nH]c2c(Cl)cccc12)c1ccc(F)cc1F` (centres unmarked) [(5-1), 2-(7-chloro-1H-indol-3-yl)-4-(2,4-difluorophenyl)-4-oxo-butanoic Acid] gave a melting point of 225 to 227 °C.
The same measure, in the same setting: then `CCCOc1ccc2[nH]cc(CC(=O)O)c2c1` [Compound #38, 5-(1-Propoxy)-3-indoleacetic Acid], with 133.6 to 136.8 °C; and `O=C(CC(C(=O)O)c1c[nH]c2cc(OCc3ccccc3)ccc12)c1ccc(F)cc1F` (centres unmarked) [(4-2), 2-(6-benzyloxy-1H-indol-3-yl)-4-(2,4-difluorophenyl)-4-oxo-butanoic Acid], with 177 to 178 °C.
For `N#CC(C#N)=NNc1ccc(OC(F)(F)F)cc1` [FCCP, carbonyl cyanide-p-trifluoromethoxyphenylhydrazone, reference compound], the “Fertilization rate (%)” value in data set [1] (sperms precultured 1 hour in TYH culture medium containing 10 μM FCCP (uncoupler), control without FCCP 47.4%) came to 30%. Moreover, in data set [1] (sperms precultured 1 hour in TYH culture medium containing 10 μM FCCP, 10 ova), the “The number of two-cell eggs” value is reported as 3.
Regarding `COc1ccc2[nH]cc(C(CC(=O)c3ccc(F)cc3F)C(=O)O)c2c1` (centres unmarked) [(3-4), 4-(2,4-difluorophenyl)-2-(5-methoxy-1H-indol-3-yl)-4-oxo-butanoic Acid], the melting point lay in the range of 205 to 206 °C.
Molecule `O=C(CC(C(=O)O)c1c[nH]c2ccc(F)cc12)c1ccc(F)cc1F` (centres unmarked) yielded a melting point of 207 to 208 °C.
In turn, `CCOc1ccc2[nH]cc(CC(=O)O)c2c1` [Compound #37, 5-Ethoxy-3-indoleacetic Acid] displayed a melting point of 86 to 92.7 °C.
`O=C(CC(C(=O)O)c1c[nH]c2ccccc12)c1ccccc1` (centres unmarked) [Compound #20, 4-Phenyl-2-(1H-indol-3-yl)-4-oxo-butanoic Acid] registered a melting point of 149 to 150 °C.
In the case of `O=C(CC(C(=O)O)c1c[nH]c2ccc(Cl)cc12)c1ccc(F)cc1F` (centres unmarked) [(3-2), 2-(5-chloro-1H-indol-3-yl)-4-(2,4-difluorophenyl)-4-oxo-butanoic Acid], the melting point was 236 to 239 °C.
Same read-out and setting: then `O=C(CC(C(=O)O)c1c[nH]c2cccc(Cl)c12)c1ccc(F)cc1F` (centres unmarked) [(2-1), 2-(4-chloro-1H-indol-3-yl)-4-(2,4-difluorophenyl)-4-oxo-butanoic Acid], with 203 to 204 °C; and `CCCCOc1ccc2[nH]cc(CC(=O)O)c2c1` [Compound #39, 5-(1-Butoxy)-3-indoleacetic Acid], with 137.8 to 141.1 °C; and `Cn1cc(C(CC(=O)c2ccc(F)cc2F)C(=O)O)c2ccccc21` (centres unmarked) [(6-1), 4-(2,4-difluorophenyl)-2-(1-methyl-1H-indol-3-yl)-4-oxo-butanoic Acid], with 192 to 193 °C.
Still for that read-out and setting: then `CCCCOc1ccc2cccc(CC(=O)O)c2c1` [Compound #33, α-(7-Butoxy-1-naphthalenyl)-acetic Acid], with 102 to 104 °C.
Consider `O=C(CC(C(=O)O)c1c[nH]c2ccccc12)c1ccc(F)cc1F` (centres unmarked) [Compound #5, 4-(2,4-Difluorophenyl)-2-(1H-indol-3-yl)-4-oxo-butanoic Acid], for which the “The number of two-cell eggs” value is 11 in data set [1] (sperms precultured 1 hour in TYH culture medium containing 1 μM compound #5, 11 ova); 5 in data set [1] (sperms precultured 1 hour in TYH culture medium containing 10 μM FCCP and 1 μM compound #5, 10 ova). Besides, the “Fertilization rate (%)” value in data set [1] (sperms precultured 1 hour in TYH culture medium containing 1 μM compound #5, two-cell eggs observed 24 to 28 hours after semination, control without compound 40%) stood at 100%; in data set [1] (sperms precultured 1 hour in TYH culture medium containing 10 μM FCCP and 1 μM compound #5, FCCP alone 30%), 50%.
`CCCn1cc(C(CC(=O)c2ccc(C)cc2C)C(=O)O)c2ccccc21` (centres unmarked) [Compound #6, 4-(2,4-Dimethylphenyl)-2-(1-propyl-1H-indol-3-yl)-4-oxo-butanoic Acid] had a melting point of 139 to 141 °C.
Molecule `O=C(CC(C(=O)O)c1c[nH]c2cc(F)ccc12)c1ccc(F)cc1F` (centres unmarked) [Compound (4-1), 4-(2,4-difluorophenyl)-2-(6-fluoro-1H-indol-3-yl)-4-oxo-butanoic Acid] showed a melting point of 210 to 214 °C.

Usually melting point stands for the temperature, or range, at which the solid turns liquid.

Source of the values: patent publication US12139459B2, “Enhancer of fertilization function of sperm” (TOHOKU UNIVERSITY, priority 2018, dated 2024).
